The values that follow come from patent US20190083436A1, “METHODS OF DIAGNOSING CANCER” (AGENCY FOR SCIENCE, TECHNOLOGY AND RESEARCH, priority 2016, published 2019).

The structures appear in SMILES notation.

One assay has as its system HCC cell lines. As to the kind of experiment: Real-time cell proliferation (xCELLigence) of liver cancer cell lines treated with compounds. Format: cell-based.
For the next assay, the system named is mTOR. As to the kind of experiment: Immunofluorescence of mTOR/LAMP2 co-localization in Hep3B cells. Format: cell-based. The following applies: treated 2 hours. The source says: Arrows highlight the co-localization of mTOR and lysosomal marker LAMP2. […] Student's t-test, *P<0.05, compared to respective controls.
A further assay concerns DEN-induced liver tumors. Put plainly: DEN-injected mice fed BCAA-supplemented diets with Fenofibrate or BT2. Format: in vivo. The following applies: 8 months after DEN injection; LFD+BCAA or HFD+BCAA with 0.05% Fenofibrate or 0.02% BT2. The source says: Analysis of mice 8 months after DEN injection, fed either a low fat diet (LFD, 10% kcal from fat) or high fat diet (HFD, 45% kcal from fat) with normal or high (+150%) levels of BCAAs. […] Hazard ratios (with 95% confidence intervals) based on BCAA intake, adjusted for age, sex, race, total kcal, usual dietary intake, diet change, physical activity, intentional weight loss, waist circumference, smoking, education, and prior diagnosis of cancer, diabetes and cardiovascular disease, additionally adjusted for % kcal from other macronutrients. […] Substitution analysis comparing change in risk when replacing BCAAs with carbohydrate or fat, with the same adjustments as HR2 except total kcal and % kcal from nonBCAA protein. Data are presented as hazard ratio (solid line) with 95% confidence interval (shaded area). […] Student's t-test, *P<0.05 vs. LFD, § P<0.05 vs HFD. †P<0.05 vs LFD+BCAA. ‡P<0.05 vs HFD+BCAA. […]
All animal studies were approved by the Institutional Animal Care and Use Committee at A*STAR. […] For rat DEN model, DEN was given to 10 week-old rats via drinking water containing 100 mg/L DEN for up to 4 months, and control rat livers from age-matched rats were analyzed. […] Livers were resected, measured by electronic calipers and snap frozen in liquid nitrogen. […] Body weights were measured weekly and prior to sacrifice lean and fat mass were measured by an EchoMRI Body Composition Analyzer. […]

The next assay relates to mTOR pathway. As to the kind of experiment: Immunoblots of mTOR pathway activity after 2 hours of compound treatment. Format: cell-based. The following applies: HCC cell lines, 2 hours of treatment. A general note: Immunoblotting shows a protein as a band on a membrane.

Protocol for HCC cell lines: Cell Culture. Cell lines were obtained [Huh7 from Japanese Collection of Research Bioresources; Hep3B, SNU182, SNU387, SNU398, and SNU449 from ATCC; and Morris Hepatoma 3924a from German Cancer Research Center Tumor Collection] and not further verified. Only cell stocks that had been verified mycoplasma-negative within the prior 9 months were used. All cell lines were maintained in RPMI 1640 with 10% FBS and 1% Pen Strep (Gibco) and grown in a 37° C. humidified incubator with 5% CO2. Real-time cell growth measurements were taken on an xCELLigence RTCA SP (Acea) at 15-minute intervals. For compound treatment growth curves, cells were seeded in quadruplicate at 1,250, 2,500 or 5,000 cells per well and normalized 12 hours later (time 0 hours), immediately prior to changing half of the media to add compounds or vehicle. […] For immunoblots, cells were seeded in 10 cm dishes and allowed to grow for at least 24 hours. At approximately 80% confluence the media was changed to include indicated amounts of compound or vehicle (DMSO) and whole cell lysates were harvested 2 hours later. […] Results shown are one of at least three independent experiments.
Protocol for mTOR pathway: All cell lines were maintained in RPMI 1640 with 10% FBS and 1% Pen Strep (Gibco) and grown in a 37° C. humidified incubator with 5% CO2. […] For immunoblots, cells were seeded in 10 cm dishes and allowed to grow for at least 24 hours. At approximately 80% confluence the media was changed to include indicated amounts of compound or vehicle (DMSO) and whole cell lysates were harvested 2 hours later. […] For immunoblots, cells were seeded in 10 or 15 cm dishes, and were split or received media change every 3-4 days to maintain a doxycycline concentration of 250 μg/mL. After 10 days, cells were harvested as whole cell lysates, or as purified mitochondrial fractions using an isolation kit (Thermo Fisher). Results shown are one of at least three independent experiments. […] For immunoblots, cells were seeded into 10 cm or 15 cm dishes and harvested 5 days later as whole cell lysates or purified mitochondrial fractions, when the cells were approximately 80% confluent.
Antibodies were obtained from Cell Signaling [Cleaved Caspase 3 (9664), Cox IV (4844), p-Histone H2A.X (9718), S6 (2317), p-S6 (4858), S6K (9202), p-S6K (9234)], Santa Cruz [Bckdha (sc-67200), Bckdhb (sc160974), Gapdh (sc-32233)], Bethyl [p-Bckdha (A304-672A)], Sigma [Tubulin (T5168), Acads (HPA022271)], and Abcam [Acadsb (ab99951), Bckdk (ab125389 and ab151297), Ki67 (ab15580)]. […]

As for `CCC(=O)N1CCN(c2ccc(-n3c(=O)ccc4cnc5ccc(-c6cnc7ccccc7c6)cc5c43)cc2C(F)(F)F)CC1` [Torin 1], the “sensitivity of HCC cell lines to mTOR inhibitors” value with HCC cell lines (all HCC cell lines examined, proliferation and mTOR pathway immunoblots) was “at least partially sensitive”.
`CC(C)OC(=O)C(C)(C)Oc1ccc(C(=O)c2ccc(Cl)cc2)cc1` [Fenofibrate, propan-2-yl 2-[4-(4-chlorobenzoyl)phenoxy]-2-methylpropanoate]: the “mTOR subcellular localization (co-localization of mTOR and lysosomal marker LAMP2)” value with mTOR is listed as “no significant co-localization was observed”. Besides, in the assay on DEN-induced liver tumors, the “tumor promoting effects of BCAA-supplemented diets (number of tumors ≥3 mm, size of largest tumor)” value is given as “able to reverse the tumor promoting effects”.
For the molecule `O=C(O)c1sc2cc(Cl)ccc2c1Cl` [BT2, 3,6-dichlorobenzo[b]thiophene-2-carboxylic acid], in the assay on mTOR, the “mTOR subcellular localization (co-localization of mTOR and lysosomal marker LAMP2)” value was “no significant co-localization was observed”. Besides, in the assay with DEN-induced liver tumors, the “tumor promoting effects of BCAA-supplemented diets (number of tumors ≥3 mm, size of largest tumor)” value is given as “able to reverse the tumor promoting effects”. Besides, the “cell proliferation (real-time proliferation curves, divisions per day)” value in the assay on HCC cell lines (panel of HCC cell lines, rates over 48-hour period) is “potent dose-dependent decrease in cell proliferation”. In the assay with mTOR pathway, the “mTOR activity (immunoblots)” value is reported as “broad loss of mTOR activity”.
